Data from patent US20240316051A1, “A PHARMACEUTICAL COMBINATION AND USE THEREOF” (Ascentage Pharma (Suzhou) Co., Ltd., priority 2021, published 2024).
pIC50: −log10 of the molar value.

Tests used:
[1] = tested on: NCI-H226 (BAP1mut, CDKN2Adel, FGFR high) xenograft; experiment: NCI-H226 xenograft model (Examples 18-19); assay type: in vivo, mice; details: Compound 2-5 50 mg/kg, orally, once per day, 35 days
Protocol: (§1) A subcutaneous xenograft tumor model of human tumor immunodeficient mice was established by cell inoculation: tumor cells in logarithmic growth phase were collected, counted, resuspended in 1×PBS, and the cell suspension concentration was adjusted to 2.5-5×10^7/mL. The tumor cells were inoculated subcutaneously in the right side of immunodeficient mice with a 1 ml syringe ([…]), 5-10×10^6/0.2 mL/mouse. All animal experiments were strictly in accordance with the specifications for the use and management of experimental animals in GenePharma Co., Ltd. and Suzhou Ascentage Pharma Co., Ltd. The calculation of relevant parameters refers to the Chinese NMPA “Guidelines for Non-Clinical Research Techniques of Cytotoxic Anti-tumor Drugs”.
Animal body weight and tumor size were measured twice weekly during the experiment. The state of the animal and the presence or absence of death were observed every day. The growth of tumor and the effects of treatment on normal behavior of animals were monitored routinely, specifically involving experimental animal activity, feeding and drinking, weight gain or loss, eyes, clothing hair and other abnormalities. The deaths and clinical symptoms observed during the experiment were recorded in the raw data. […] The plasma and tumor samples were frozen at −80° C. for ready-to-use.
(§2) Tumor volume (TV) is calculated as: TV=a×b^2/2, wherein a and b represent the length and width of the tumor to be measured, respectively.
(§3) The relative tumor volume (RTV) is calculated as: RTV=Vt/V1, wherein V1 is the tumor volume at the start of grouping and administration, and Vt is the tumor volume measured on the t day after administration. […]
Use of mRECIST (Gao et al., 2015) measured tumor responses included stable disease (SD), partial tumor regression (PR), and complete regression (CR), determined by comparing tumor volume change at day t to its baseline: tumor volume change (%)=(Vt−V1)/V1. […] For each time t, the average of tumor volume changes from t=1 to t was also calculated. […] Body weight of animals were monitored simultaneously. […]

[2] = tested on: BAP1 mut mesothelioma PDX model; experiment: BAP1 mut mesothelioma PDX model (Examples 15-17); assay type: in vivo, mice; details: Compound 2-5 50 mg/kg, orally, once per day, 28 days
Protocol: as §1
(§4) Animal body weight and tumor size were measured twice weekly during the experiment. The state of the animal and the presence or absence of death were observed every day. The growth of tumor and the effects of treatment on normal behavior of animals were monitored routinely, specifically involving experimental animal activity, feeding and drinking, weight gain or loss, eyes, clothing hair and other abnormalities. The deaths and clinical symptoms observed during the experiment were recorded in the raw data. All operations for administration and measurement of mouse body weight and tumor volume were performed in a clean bench. According to the requirements of the experimental protocol, after the end of the last administration, plasma and tumor tissues were collected, weighed and photographed. The plasma and tumor samples were frozen at −80° C. for ready-to-use.
as §2
(§5) The relative tumor volume (RTV) is calculated as: RTV=Vt/V1, wherein V1 is the tumor volume at the start of grouping and administration, and Vt is the tumor volume measured on the t day after administration.
(§6) The evaluation index of anti-tumor activity is the relative tumor proliferation rate T/C (%), and the calculation formula thereof is: relative tumor proliferation rate T/C (%)=(TRTV/CRTV)×100%, TRTV is the RTV of treatment group, CRTV is the RTV of solvent control group.
(§7) A dose of drug is considered to be severely toxic if the body weight of mouse is reduced by more than 20% or the number of drug-related deaths exceeds 20%.
(§8) According to the description by Clarke R., Issues in experimental design and endpoint analysis in the study of experimental cytotoxic agents in vivo in breast cancer and other models [J]. Breast Cancer Research & Treatment, 1997, 46(2-3): 255-278, synergy analysis was evaluated using the following formula: synergy factor=((A/C)×(B/C))/(AB/C); A=RTV value of drug A alone group; B=RTV value of drug B alone group; C=RTV value of the solvent control group, and AB=RTV value of the A and B combination group.
In this experiment, a BAP1 mut mesothelioma PDX model (Lide Biotech) was established to evaluate the anti-tumor effect of Compound 73. The dosing regimen was as follows: • Compound 73: 50 mg/kg, orally, once per day, for a total of 28 days; • Compound 73: 100 mg/kg, orally, once per day, for a total of 28 days;
In this experiment, a BAP1 mut mesothelioma PDX model (Lide Biotech) was established to evaluate the anti-tumor effect of Compound 73 in combination with Compound A-1. […]

[3] = tested on: malignant pleural mesothelioma (MPM) PDX model (FGFR1high; BAP1mut); experiment: Subcutaneous malignant pleural mesothelioma (MPM) PDX model (Example 20); assay type: in vivo, mice; details: Compound 73 100 mg/kg, Compound C 50 mg/kg, each orally every other day, 76 days; alone or combined
Protocol: as §1, §4, §2, §3
Change of body weight (%)=(measured body weight-body weight at the start of grouping)/body weight at the start of grouping×100%. […]
(§9) According to the description by Clarke R., Issues in experimental design and endpoint analysis in the study of experimental cytotoxic agents in vivo in breast cancer and other models [J]. Breast Cancer Research & Treatment, 1997, 46(2-3): 255-278, synergy analysis was evaluated using the following formula: synergy factor=((A/C)×(B/C))/(AB/C); A=RTV value of drug A alone group; B=RTV value of drug B alone group; C=RTV value of the solvent control group, and AB=RTV value of the A and B combination group. […]

[4] = tested on: H226 (BAP1mut, UHRF1high, TP53WT, CDKN2Adel, FGFRhigh) subcutaneous mesothelioma xenograft; experiment: H226 subcutaneous mesothelioma xenograft model (Example 22); assay type: in vivo, mice
Protocol: as §1, §4, §2, §5, §6
(§10) Change of body weight (%)=(measured body weight-body weight at the start of grouping)/body weight at the start of grouping×100%.
as §7
In this experiment, H226 (BAP1mut, UHRF1high, TP53WT, CDKN2Adel, FGFRhigh) subcutaneous mesothelioma xenograft model was established to evaluate the anti-tumor effect of Compound 73 in combination with Compound C. The dosing regimen was as follows: • Compound C: 50 mg/kg, orally, every other day, for a total of 39 days; • Compound 73: 50 mg/kg, orally, once per day, for a total of 39 days; • Compound 73: 100 mg/kg, orally, once per day, for a total of 39 days.

[5] = tested on: BAP1 mut mesothelioma PDX model; experiment: Subcutaneous BAP1 mut mesothelioma PDX model (Example 21); assay type: in vivo, mice; details: Compound 73 100 mg/kg orally once per day, Compound C 50 mg/kg orally every other day, 36 days; alone or combined
Protocol: as §1, §4, §2, §5, §6, §10, §7
In this experiment, subcutaneous BAP1 mut mesothelioma PDX model was established (Lide Biotech) to evaluate the anti-tumor effect of Compound 73 in combination with Compound C. […]

[6] = tested on: 22RV1 prostate xenograft; experiment: Subcutaneous 22RV1 prostate xenograft model (Example 24); assay type: in vivo, mice
Protocol: as §1, §4, §2, §5, §6, §10, §7, §8
In this experiment, subcutaneous 22RV1 prostate xenograft model was established to evaluate the anti-tumor effect of Compound 73 in combination with Compound C. The dosing regimen was as follows: • Compound C: 100 mg/kg, orally, every other day, for a total of 28 days; • Compound 73: 100 mg/kg, orally, once per day, for a total of 28 days;
(§11) The dosing regimen of each drug in the dosing regimen for the combination is the same as the dosing regimen for the single drug, for a total of 28 days.

[7] = tested on: NCI-H28(X1) (BAP1mut, UHRF1high, TP53WT, CDKN2Adel, FGFRlow, NF2WT) subcutaneous mesothelioma xenograft; experiment: NCI-H28(X1) subcutaneous mesothelioma xenograft model (Example 23); assay type: in vivo, mice; details: Compound C 50 mg/kg orally every other day, Compound 73 100 mg/kg orally once per day, 28 days, alone or combined
Protocol: as §1, §4, §2, §5
The evaluation index of anti-tumor activity is the relative tumor proliferation rate T/C (%), and the calculation formula thereof is: relative tumor proliferation rate T/C (%)=(TRTV/CRTV)×100%, TRTV is the RTV of treatment group, CRTV is the RTV of solvent control group. […]
as §9

[8] = tested on: LnCap prostate xenograft; experiment: Subcutaneous LnCap prostate xenograft model (Example 25); assay type: in vivo, mice; details: day 17
Protocol: as §1, §4, §2, §5, §6, §7, §8
In this experiment, subcutaneous LnCap prostate xenograft model was established to evaluate the anti-tumor effect of Compound 73 in combination with Compound C. The dosing regimen was as follows: • Compound C: 100 mg/kg, orally, every other day, for day 1-day 9; 50 mg/kg, orally, every other day, for day 10-day 28; • Compound 73: 100 mg/kg, orally, once per day, for a total of 28 days;
as §11

[9] = molecular target: T1, EED (1-441)-His protein (Homo sapiens, UniProt O75530); experiment: EED-H3K27Me3 peptide competition binding assay by AlphaScreen; details: Table 4A, read-out: Alpha screen
T1 construct: 20 nM EED (1-441)-His protein
T1 sequence (O75530 whole entry): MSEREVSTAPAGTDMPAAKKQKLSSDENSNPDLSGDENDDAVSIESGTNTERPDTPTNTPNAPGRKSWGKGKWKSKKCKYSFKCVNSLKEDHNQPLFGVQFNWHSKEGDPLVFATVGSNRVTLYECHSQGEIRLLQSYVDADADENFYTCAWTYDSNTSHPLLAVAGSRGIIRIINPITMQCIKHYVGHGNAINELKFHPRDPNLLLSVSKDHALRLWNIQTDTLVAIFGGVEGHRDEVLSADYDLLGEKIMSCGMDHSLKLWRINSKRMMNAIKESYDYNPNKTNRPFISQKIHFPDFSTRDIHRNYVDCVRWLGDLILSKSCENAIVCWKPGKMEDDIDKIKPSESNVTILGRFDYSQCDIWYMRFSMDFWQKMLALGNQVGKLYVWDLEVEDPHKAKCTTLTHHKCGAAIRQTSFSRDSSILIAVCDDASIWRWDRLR
In short: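 Readout was AlphaScreen emission at 615 nm after 680 nm excitation, with 10 μg/ml final each of streptavidin donor and nickel chelate acceptor beads, 1 h at RT in the dark. Beforehand, compound met the His-tagged EED(1-441) for 15 min and then biotinylated H3K27Me3(19-33) peptide for 30 min; both were added as 20 nM solutions, buffer 25 mM HEPES pH 8, Tween-20, BSA. Percent activity left was fitted to give IC50.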

[10] = tested on: human B cell lymphoma cell KARPAS422; experiment: Cell proliferation (WST-8), KARPAS422, 7 days; assay type: cell-based; details: KARPAS-422, 168 h, WST-8, Table 4A, read-out: Karpas Cell line
Protocol: (§12) Analysis of Cell Proliferation:
(§13) To assess the effect of PRC2 inhibition on cell growth, cells were seeded in 96-well cell culture plates at a density of 2 000-3 000 cells/well in 200 μL of culture medium, and treated with serially diluted compounds for 7 days at 37° C. in an atmosphere of 5% CO2. Cell growth was evaluated by a […] WST-8 assay (Dojindo Molecular Technologies) using a Tecan Infinite M1000 multimode microplate reader (Tecan, Morrisville, NC). The WST-8 reagent was added to the plate, incubated for 1-4 h, and read at 450 nm. The readings were normalized to the DMSO-treated cells, and the IC50 was calculated by nonlinear regression analysis using GraphPad Prism 6 software

[11] = tested on: Pfeiffer Cell line; experiment: Cell proliferation, Pfeiffer cell line; assay type: cell-based; details: Homo sapiens, anti-proliferative IC50, Table 4A
Protocol: as §12, §13

Cc1cc(Nc2ncc(Cl)c(Nc3ccccc3S(=O)(=O)C(C)C)n2)c(OC(C)C)cc1C1=CCN(C2CCOCC2)CC1 [Compound 2-5, 5-chloro-N^2-(2-isopropoxy-5-methyl-4-(1-(tetrahydro-2H-pyran-4-yl)-1,2,3,6-tetrahydropyridin-4-yl)phenyl)-N^4-(2-(isopropylsulfonyl)phenyl)pyrimidine-2,4-diamine]
inhibition of tumor growth (in words) [1]: almost not effective in inhibiting tumor growth | inhibition of tumor growth (in words) [2]: not effective in inhibiting tumor growth

CCN1[C@@H](C(=O)NC23CCC(C(=O)O)(CC2)CC3)[C@H](c2cccc(Cl)c2F)[C@]2(C(=O)Nc3cc(Cl)ccc32)C12CCCCC2 [Compound C]
RTV @ D 76 [3]: 3.47 | T/C (%) @ D 76 [3]: 60% | T/C (%) @ D 39 ([4]; Compound C 50 mg/kg orally every other day, Compound 73 50 mg/kg orally once per day, alone or combined): 49.45% | RTV @ D 39 ([4]; Compound C 50 mg/kg orally every other day, Compound 73 50 mg/kg orally once per day, alone or combined, mean ± SEM): 3.94 ± 0.69 | antitumor activity (in words) ([4]; single agents, 39 days (FIG. 10)): moderate antitumor activity | RTV @ D 36 [5]: 8.04 | T/C (%) @ D 36 [5]: 55.17% | RTV@ D 26 ([6]; 22RV1 xenograft, day 26, Compound 73 100 mg/kg orally once per day, Compound C 50 mg/kg (table) orally every other day): 14.81 ± 4.35 | T/C(%) @ D 26 ([6]; 22RV1 xenograft, day 26, Compound 73 100 mg/kg, Compound C 50 mg/kg (table)): 93.39% | RTV@ D 29 ([6]; 22RV1 xenograft, day 29): 18.54 ± 7.96 | T/C value ([6]; day 26, Compound C 100 mg/kg orally every other day, Compound 73 100 mg/kg orally once per day, alone or combined): 93.39% | T/C (%) @ D 29 [7]: 92.16% | RTV@ D 29 ([7]; mean ± SEM): 14.06 ± 1.22 | RTV@ D 17 ([8]; LnCap xenograft, Compound 73 100 mg/kg orally once per day, Compound C 100 mg/kg/50 mg/kg orally every other day): 2.57 ± 0.24 | T/C(%) @ D 17 ([8]; LnCap xenograft, Compound 73 100 mg/kg, Compound C 100 mg/kg/50 mg/kg): 57.46% | T/C value ([8]; Compound C 100 mg/kg every other day day 1-9 then 50 mg/kg day 10-28, Compound 73 100 mg/kg once per day, orally, alone or combined): 57.46%

O=C1c2ncn3c(NCc4c(F)ccc5c4CCO5)ncc(c23)-c2sccc2CN1C1CC1 [Compound 87, 4-cyclopropyl-11-(((5-fluoro-2,3-dihydrobenzofuran-4-yl)methyl)amino)-4,5-dihydro-3H-8-thia-2,4, 10,11a-tetraazacyclopenta[4,5]cycloocta[1,2,3-cd] inden-3-one]
pIC50 [9]: 7.95 | pIC50 [10]: 8.06 | pIC50 [11]: 10.74
